Assay: Study 2: female adult dogs fed formulations or injected with Humulin, serum glucose level
Format: in vivo
Description: Female adult dogs were fed the formulations from Examples 3 to 5. Further dogs were injected with Humulin and given 0.05 mL of 100 U/mL. Before being fed or injected the formulations, the animals fasted overnight. The dogs were fed 4 to 6 hours after dosing.

Substance: Humulin: injected insulin comparator, 0.05 mL of 100 U/mL
- time after dosing at which glucose level began increasing (injected 0.05 mL of 100 U/mL): about 2 hours
- drop in glucose levels (injected 0.05 mL of 100 U/mL, within minutes): 67%
- time at which glucose levels returned to normal levels (injected, after eating): about 12 hours
- glucose levels at hours 6 to 10 (injected, ate dog food at 4 to 6 hours): above the normal levels
